Among the test systems are LOX IMVI melanoma; HT29 colon; SW-620 colon; M14 melanoma; DLD-1 colon; HOP-92 NSCLC; KM20L2 colon; SF-268 CNS; NCI-H460 lung.
Holding throughout (experiment): growth of human tumour cells (NCI), 48 h

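A five-concentration, 48-hour dose response in 96-well plates underlies each endpoint, interpolated linearly between surrounding concentrations. The concentration for 50% growth inhibition is given as GI50. TGI marks complete inhibition of growth.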

For the compound `[Cl][Sn]([Cl])([c]1ccccc1)[c]1ccccc1`, the GI50 in the test on LOX IMVI melanoma was 4.51 µM; with HT29 colon it was 16.1 µM; in the test with SW-620 colon it was 3.02 µM; in the test with M14 melanoma, 15.3 µM; in the test on DLD-1 colon, 4.51 µM; with HOP-92 NSCLC, 3.02 µM. Also, the results for the GI50 with KM20L2 colon and in the test with SF-268 CNS were 14.8 µM and 13.2 µM, respectively. In addition, the TGI is 17.1 µM in the test with LOX IMVI melanoma; 30.5 µM in the test with HT29 colon; 10.2 µM in the test on SW-620 colon; 29 µM in the test with M14 melanoma; 17.5 µM with DLD-1 colon; 6.36 µM with HOP-92 NSCLC. Also, the TGI in the test with KM20L2 colon worked out at 28 µM; with SF-268 CNS, 30.4 µM.
With `CC(=O)N1c2ccccc2C2=CC3C4C(=O)N(c5ccccc5)C(=O)C4C21C1C(=O)N(c2ccccc2)C(=O)C31` (stereo not given), the TGI in the test with LOX IMVI melanoma, in the test with HT29 colon, with SW-620 colon, in the test on DLD-1 colon, with HOP-92 NSCLC and with NCI-H460 lung was above 100 µM each time. Also, the TGI in the test with KM20L2 colon was 70 µM; with SF-268 CNS, above 100 µM.
`CCN(CC)CCCn1cnc2ncccc2c1=O`: the TGI in the test with LOX IMVI melanoma, with HT29 colon, in the test with SW-620 colon, in the test on M14 melanoma, with DLD-1 colon and in the test with HOP-92 NSCLC was above 100 µM in each case. Besides, the TGI in the test on NCI-H460 lung and with SF-268 CNS was above 100 µM in each case.
`CCCCCCCC(=O)NCC(O)CNC(=O)CCCCCCC`: the TGI in the test with LOX IMVI melanoma, in the test on HT29 colon, with SW-620 colon, with M14 melanoma, in the test on DLD-1 colon and in the test on HOP-92 NSCLC was above 100 µM each time. The TGI in the test on NCI-H460 lung, with KM20L2 colon and in the test with SF-268 CNS was above 100 µM each time.
Turning to `O=C(CCC(=O)Nc1cccc(Cl)c1)CC(=O)c1ccc(F)cc1`, the TGI with LOX IMVI melanoma, in the test with HT29 colon, with SW-620 colon, in the test with M14 melanoma, in the test on DLD-1 colon and in the test with HOP-92 NSCLC was above 100 µM in each case. In addition, the TGI with NCI-H460 lung, in the test with KM20L2 colon and in the test with SF-268 CNS was above 100 µM each time.
On to `CN(C)CCN(C)CC1COC(C)(C)O1` (stereo not given), for which the TGI in the test on LOX IMVI melanoma, in the test on HT29 colon, in the test on SW-620 colon, in the test on M14 melanoma, with DLD-1 colon and in the test with HOP-92 NSCLC was above 100 µM each time. Besides, the TGI with NCI-H460 lung, in the test with KM20L2 colon and in the test with SF-268 CNS was above 100 µM in each case.
Regarding `O=C(O)C1=CCCc2ccc3ccccc3c21`, the TGI in the test with LOX IMVI melanoma, in the test on HT29 colon, with SW-620 colon, in the test with M14 melanoma, with HOP-92 NSCLC and in the test on NCI-H460 lung was above 100 µM throughout. Also, the TGI in the test with KM20L2 colon and in the test on SF-268 CNS was above 100 µM each time.
As for `Cn1c2c(c3ccccc31)CCN(CCN1CCN(c3ccccc3)CC1)C2=O`, the TGI was above 100 µM with LOX IMVI melanoma; above 100 µM with HT29 colon; above 100 µM with SW-620 colon; above 100 µM with M14 melanoma; above 100 µM in the test on DLD-1 colon; 96.5 µM in the test on HOP-92 NSCLC. Moreover, the TGI in the test with NCI-H460 lung, in the test on KM20L2 colon and with SF-268 CNS was above 100 µM throughout.
As for `COc1ccc(NC(=O)CC(=O)N2N=C(N(CCC#N)c3ccccc3Cl)CC2c2ccccc2)cc1` (stereo not given), the TGI with LOX IMVI melanoma, in the test with HT29 colon, in the test with SW-620 colon, with M14 melanoma, in the test with DLD-1 colon and in the test with HOP-92 NSCLC was above 100 µM in each case. Further, the TGI in the test with NCI-H460 lung, in the test with KM20L2 colon and with SF-268 CNS was above 100 µM in each case.
As for `Nc1nc2sc3ccccc3c(=O)n2n1`, the TGI with LOX IMVI melanoma, with HT29 colon, with SW-620 colon, in the test with M14 melanoma, in the test on DLD-1 colon and with HOP-92 NSCLC was above 100 µM throughout. Also, the TGI in the test on NCI-H460 lung, in the test on KM20L2 colon and in the test with SF-268 CNS was above 100 µM each time.
Take `CC[O-].CC[O-].O=C([CH-]C(=O)c1cccnc1)c1ccccc1.O=C([CH-]C(=O)c1cccnc1)c1ccccc1.[Ti+4]`: the GI50 with LOX IMVI melanoma is above 100 µM; with HT29 colon, 57.1 µM; in the test with SW-620 colon it was 96.8 µM; with M14 melanoma it was 60.4 µM; in the test on NCI-H460 lung it was 31.2 µM; with KM20L2 colon, 62 µM. Further, the GI50 in the test with SF-268 CNS is 88.3 µM. Also, the TGI in the test with LOX IMVI melanoma, with HT29 colon, in the test with SW-620 colon, in the test on M14 melanoma, in the test on NCI-H460 lung and in the test on KM20L2 colon was above 100 µM throughout. In addition, the TGI in the test with SF-268 CNS is above 100 µM.
As to `COC(=O)C1CCC(Nc2ccc(C)cc2C)=N1` (stereo not given), the TGI with LOX IMVI melanoma, with HT29 colon, with SW-620 colon, in the test on M14 melanoma, in the test on DLD-1 colon and in the test on HOP-92 NSCLC was above 100 µM in each case. Also, the TGI in the test on NCI-H460 lung, in the test with KM20L2 colon and in the test on SF-268 CNS was above 100 µM throughout.
In the case of `CCOC(=O)c1c(-c2ccccc2)oc(-c2ccccc2)c1C(=O)OCC`, the TGI in the test on LOX IMVI melanoma, in the test on HT29 colon, in the test with SW-620 colon, in the test on M14 melanoma, in the test on DLD-1 colon and in the test with HOP-92 NSCLC was above 100 µM in each case. In addition, the TGI with KM20L2 colon and with SF-268 CNS was above 100 µM in each case.

The values above are taken from PubChem BioAssay (NCI).
